{"source": "patent US20120295914A1", "about": "“COMBINATION OF ADRENERGIC RECEPTOR AGONIST ALPHA-1 OR ALPHA-2, PREFERABLY BRIMONIDINE WITH FILLERS, PREFERABLY HYALURONIC ACID” (Galderma Research & Development, priority 2009, published 2012)", "key": {"[1]": {"conditions": "in vivo; cited from earlier work"}, "[2]": {"tested_on": "dermabraded skin (cutaneous reactions, redness/bleeding)", "excerpt": "In Vivo Dermabrasion Assays in Minipig Minizone Model Using a BURANE XL Laser and Skin Interaction with Brimonidine Gel\nThe objectives of this study were to assess the local dermal effect of single dermal application of Brimonidine Gel placebo or 1% applied on delimited abraded mini-zone (2.8 cm^2 and different dermabraded skin conditions) in the Gottingen® minipig.\nOne female Göttingen® minipig (naïve), between 4 and 8 months old, received Dermal (topical) application of Brimonidine Gel at 1% on delimited mini-zones (2.8 cm^2, using a Ringflost®).\neach zone is clipped free from hair. On the clipped area (dorsum, avoiding the spinal column and the intra-scapular area), 4 minizones (2 on either side) is delimited using Ringflost® and surrounded with an indelible pen.\nThe animal is anesthetized (Zoletil®) before dermabrasion. Each minizone is disinfected with chlorexidine. The experimental conditions used for each zone is set as follows:\nThe Brimonidine gel 1% is gently applied 5 minutes prior to the dermabrasion procedure.\nThe cutaneous reaction is evaluated immediately, and 2-5 and 10 minutes after the dermabrasion procedure. The skin is examined to evaluate the degree of erythema, edema, desquamation, scab formation and any other lesions. Cutaneous reaction is evaluated according to the grading scale describe in “OCDE Guideline No. 404. Acute dermal irritation/corrosion”. […]"}, "[3]": {"target": "α2A-adrenoceptor (Sus scrofa, UniProt P18871)", "sequence (P18871 whole entry)": "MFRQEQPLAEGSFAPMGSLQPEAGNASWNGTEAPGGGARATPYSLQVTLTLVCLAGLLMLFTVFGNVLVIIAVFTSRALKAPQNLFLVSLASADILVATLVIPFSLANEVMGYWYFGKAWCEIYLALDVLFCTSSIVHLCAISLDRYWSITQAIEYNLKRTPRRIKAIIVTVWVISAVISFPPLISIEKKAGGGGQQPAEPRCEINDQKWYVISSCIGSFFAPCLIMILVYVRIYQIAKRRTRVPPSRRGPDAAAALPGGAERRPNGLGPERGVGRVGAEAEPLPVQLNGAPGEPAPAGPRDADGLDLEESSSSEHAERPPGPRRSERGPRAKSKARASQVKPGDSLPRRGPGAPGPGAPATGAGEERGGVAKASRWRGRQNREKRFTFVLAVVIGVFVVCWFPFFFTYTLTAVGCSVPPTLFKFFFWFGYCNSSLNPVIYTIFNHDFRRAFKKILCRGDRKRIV", "conditions": "porcine species; Wikberg-Matsson and Simonsen 2001; cited from earlier work"}}}
{"smiles": "Brc1c(NC2=NCCN2)ccc2nccnc12", "note": "[Brimonidine, (5-Bromo-quinoxalin-6-yl)-(4,5-dihydro-1H-imidazol-2-yl)-amine]", "values": [{"measurement": "half-life", "setting": "[1]", "result": 4, "unit": "h"}, {"measurement": "cutaneous reactions (bruising or bleeding) during aesthetic or surgery procedures", "setting": "[2]; Brimonidine gel 1% topical on dermabraded minizones, conclusion of Example 3", "result": "capable of decreasing cutaneous reactions"}, {"measurement": "vasoconstrictor effect (comparative analysis of pictures Z3 vs Z4)", "setting": "[2]; Brimonidine gel 1% topical, applied 5 minutes prior to dermabrasion, 10 j/cm2, 6 passes, treated zone Z4 vs non-treated Z3, one female minipig", "result": "visually more evident starting from 5 min post-dermabrasion until 14 min and beyond"}, {"measurement": "vasoconstrictor activity", "setting": "[3]", "result": "potent vasoconstrictor"}]}
